Measurements reported in US20250325712A1, “TARGETING LIGANDS FOR DISEASE-TARGETED IMAGING AGENTS AND METHODS OF USE THEREFOR” (Curadel Surgical Innovations, Inc., priority 2024, published 2025).

Assay: Stability of dyes in 37° C. buffered fetal bovine serum (normalized absorbance and absorbance spectra over time)
Type: in vitro ADME
Conditions: compared to ZW800-1
Experimental: The normalized absorbance of ZW800-1 and ZW700-1c in 37° C. buffered FBS, pH 7.4 over time from 0 to 60 hours are shown in FIGS. 2-4.

- stability: normalized absorbance over time (37° C. buffered FBS, pH 7.4, 0 to 60 hours): extreme stability
- stability over time: changes in absorption spectra during metabolism in warm serum (warm serum (37° C. buffered FBS, pH 7.4, 0 to 48 hours)): high stability
Structure (SMILES): CC1(C)C(/C=C/C(=C/C=C2/N(CCC[N+](C)(C)C)c3ccc(S(=O)(=O)[O-])cc3C2(C)C)c2ccc(CCC(=O)[O-])cc2)=[N+](CCC[N+](C)(C)C)c2ccc(S(=O)(=O)[O-])cc21 [ZW700-1c]
